Experimental data: patent publication US20070074297A1, “TAAR1 knock out animal” (priority 2005, published 2007)
Where “and” joins values, the source holds several entries; their conditions need not be identical. Equal values may be shown once. Entries after “also recorded” stand apart in the source; their conditions may differ.

How the values were obtained:
[1] = tested on: TAAR1^+/+ and TAAR1^LacZ/LacZ mice; experiment: In vivo microdialysis of extracellular biogenic amines in the striatum after d-amphetamine; parameters: species or system mouse
Protocol: Four months old male mice were used for these experiments. The procedures used for the experiments described in this report received prior approval from the City of Basel Cantonal Animal Protection Committee based on adherence to federal and local regulations on animal maintenance and testing.
Forty-five minutes before anesthesia mice received subcutaneously 0.075 mg/kg of buprenorfine. Mice were then anesthetized with isoflurane and placed in a stereotaxic device equipped with dual manipulators arms and an anesthetic mask. Anesthesia was maintained with isoflurane 0.8-1.2% (v/v; support gas oxygen/air, 2:1). The head was shaved and the skin was cut along the midline to expose the skull. A small bore hole was made in the skull to allow the stereotaxical insertion of the microdialysis probe (vertical probe carrying a 2 mm polyacrilonitrile dialysis membrane; Brains On-line, Groningen, The Netherlands) in the striatum (coordinates: A 0.9 mm, L-1.8 mm, V-4.6 mm). The probe was cemented into place using binary dental cement. Once the cement was firm, the wound was closed with silk thread for suture (Silkam) the animal was removed from the stereotaxic instrument and returned to its cage. At the end of the surgery and 24 hrs later mice were treated with Meloxicam 1 mg/kg sc. The body weight of the animals was measured before the surgery and in the following days to monitor the recovery of the animal from surgery.
All microdialysis experiments were carried out 3-4 days after surgery in awake, freely moving mice. The day of the experiment, the inlet of the implanted dialysis probe was connected to a micro-perfusion pump (CMA/Microdialysis, Sweden) and the outlet was connected to a fraction collector. The microdialysis probe was then perfused with Ringer solution (NaCl 147 mM, KCl 3 mM, CaCl2 1.2 mM, MgC12 1.2 mM) at a constant flow rate of 1.5 μL/min and […] Four samples of dialysates were collected before pharmacological treatment to determine the baseline levels of biogenic amines and their metabolites. Mice were then treated intraperitoneally with 2.5 mg/kg of amphetamine and dialysate samples collected for further 2.5 hrs. Dialysate samples were stored frozen at −80° C. until analysis.
Frozen dialysate samples were shipped in dry ice to Brains On-Line for assay of monoamines and their metabolites. The concentrations of dopamine, DOPAC, serotonin, 5-HIAA and noradrenaline were measured by use an HPLC equipped with an electrochemical detector according to the procedure of van der Vegt et al. (2003).
Concentrations of norepinephrine, dopamine, and serotonin were determined within the same samples by HPLC separation and electrochemical detection. Samples were split into two aliquots; one used for simultaneous analysis of norepinephrine and dopamine, the other for analysis of serotonin.
Aliquots (20 μL) were injected onto the HPLC column by a refrigerated microsampler system, consisting of a syringe pump (Gilson, model 402), a multi-column injector (Gilson, model 233 XL), and a temperature regulator (Gilson, model 832). Chromatographic separation was performed on a reverse-phase 150×2.1 mm (3 μm) C18 Thermo BDS Hypersil column (Keystone Scientific). The mobile phase (isocratic) consisted of a sodium acetate buffer (4.1 g/L Na acetate) with 2.5% v/v methanol, 150 mg/L Titriplex (EDTA), 150 mg/L 1-octanesulfonic acid, and 150 mg/L tetramethylammonium chloride (pH=4.1 adjusted with glacial acetic acid). Mobile phase was run through the system at a flow rate of 0.35 mL/min by an HPLC pump (Shimadzu, model LC-10AD vp).
Norepinephrine and dopamine were detected electrochemically using a potentiostate (Antec Leyden, model Intro) fitted with a glassy carbon electrode set at +500 mV vs. Ag/AgCl (Antec Leyden). Data were analyzed by Chromatography Data System (Shimadzu, class-vp) software. Concentrations of monoamines were quantitated by external standard method. […]

[2] = tested on: TAAR1^+/+ and TAAR1^LacZ/LacZ mice; experiment: Locomotor activity after d-amphetamine challenge (Digiscan activity monitor); type: in vivo, mouse; settings: 2.5 mg/kg i.p.
Protocol: Locomotor activity. A computerized Digiscan 16 Animal Activity Monitoring System (Omnitech Electronics, Colombus, Ohio) was used to quantitate spontaneous locomotor activity. Data were obtained simultaneously from eight Digiscan activity chambers placed in a soundproof room with a 12 hr light/dark cycle. All tests were performed during the light phase (6 a.m. to 6 p.m.). Each activity monitor consisted of a Plexiglas box (20×20×30.5 cm) with sawdust bedding on the floor surrounded by invisible horizontal and vertical infrared sensor beams. The cages were connected to a Digiscan Analyzer linked to a PC that constantly collected the beam status information. With this system, different behavioral parameters could be measured, such as horizontal and vertical activity, total distance travelled (in cm), and stereotypies. The mice were tested via a pseudo-Latin squares design […] with at least a 10-day interval between two consecutive test sessions. […] Locomotor activity was recorded for 90 min starting immediately after the mice were placed in the cages.
Statistics. Behavioral observations were recorded as mean values SE and analyzed with an unpaired t test. Locomotor activity data (total distance) were analyzed with a two-factor (Genotype and Dose) ANOVA with repeated measures. […]

[3] = tested on: dopaminergic neurons in the VTA; experiment: Slice electrophysiology, spontaneous firing rate in the ventral tegmental area (current clamp); type: cell-based, mouse; settings: for spike frequency F of dopaminergic neurons: bath application 10 μM
Protocol: Horozontal slices (250 μm thick, VT1000 vibratome, Leica) of the midbrain were prepared from TAAR1 knock-out and littermate wild-type mice 25-60 days of age. Slices were cooled in artificial cerebrospinal fluid (ACSF) containing in mM: 119 NaCl, 2.5 KCl, 1.3 MgCl2, 2.5 CaCl2, 1.0 NaH2PO4, 26.2 NaHCO3 and 11 glucose. Slices were continuously bubbled with 95% O2 and 5% CO2 and transferred after 1 h to the recording chamber superfused (1.5 ml/min) with ACSF at 32-34° C. The VTA was identified as the region medial to the medial terminal nucleus of the accessory optical tract. Visualized whole-cell current-clamp recording techniques were used to measure the spontaneous firing rate and holding currents of neurons. […] Dopaminergic neurons were identified by a large Ih current. The internal solution contained in mM: 140 potassium gluconate, 4 NaCl, 2 MgCl2, 1.1 EGTA, 5 HEPES, 2 Na2ATP, 5 sodium creatine phosphate and 0.6 Na2GTP; the pH was adjusted to 7.3 with KOH. Data were obtained with an Axopatch 200B (Axon Instruments, Union City, Calif., USA), filtered at 2 kHz and digitized at 10 kHz, acquired and analyzed with pClamp9 (Axon Instruments, Union City, Calif., USA). Values are expressed as mean±sem. For statistical comparisons we used the Kolmogorov-Smirnov test. The level of significance was set at P=0.05.

[4] = TAAR1^LacZ/LacZ mice, 2.5 mg/kg i.p.

SMILES | amphetamine-triggered increase in extracellular dopamine, TAAR1^LacZ/LacZ relative to TAAR1^+/+ ([1]; 2.5 mg/kg i.p., n=7-8) [fold] | amphetamine-triggered increase in noradrenaline (norepinephrine), TAAR1^LacZ/LacZ relative to wild type ([1]; 2.5 mg/kg i.p., n=7-8, 2.5 mg/kg) | time until DOPAC levels returned to basal levels ([1]; TAAR1^LacZ/LacZ mice) [min] | increase of extracellular dopamine level over basal [1, 4] [fold] | increase of extracellular norepinephrine level over basal [1, 4] [fold] | increase of extracellular serotonin level [1, 4] [fold] | DOPAC level versus wild-type control ([1]; TAAR1^LacZ/LacZ mice, 45 min after administration) | change of extracellular DOPAC level in response to amphetamine ([1]; both TAAR1^LacZ/LacZ and TAAR1^+/+ mice, 2.5 mg/kg i.p.) | change in levels of the 5-HT metabolite 5-HIAA ([1]; both genotypes, 2.5 mg/kg i.p.) | change of extracellular serotonin level ([1]; wild type (TAAR1^+/+) mice, 2.5 mg/kg i.p., 2.5 mg/kg) | locomotor activity (total distance moved) after d-amphetamine, compared to wild type littermates ([2]; TAAR1^LacZ/LacZ mice, n=12, 2.5 mg/kg) | locomotor activity (total distance moved) after d-amphetamine injection ([2]; wild type (TAAR1^+/+) mice) | spike frequency F of dopaminergic neurons ([3]; TAAR1^+/+ mice, n=19, control 2.1±0.3 Hz, p<0.0001) [Hz] | spike frequency F of dopaminergic neurons ([3]; TAAR1^LacZ/LacZ mice, n=15, control 16.73±1.15 Hz, p>0.05) [Hz] | effect on firing rate (spike frequency) of dopaminergic neurons, in words ([3]; wild type (TAAR1^+/+) mice)
C[C@H](N)Cc1ccccc1 [d-amphetamine] | 2.3 | 2.3 fold and 2.4 fold | 135 | 11 | 4.9 | 2.5 | significantly decreased | only a marginal decrease | No significant changes | remained unchanged; also recorded: not in their TAAR1^+/+ littermates | moved significantly more than wild type littermates; also recorded: significantly higher | decreased |  |  | 
NCCc1ccc(O)cc1 [p-tyramine] |  |  |  |  |  |  |  |  |  |  |  |  | 0.63±0.04 | 16.57±1.35 | significant decrease; also recorded: decreases the firing rate
